# Measured values reported in ChEMBL document CHEMBL6182918, “Developing Dual-State Emission Berberine Derivatives as Theranostic Agents by Reducing Nonradiative Transition Pathways” (J Med Chem, 2025).
# The source made the active and inactive calls. The rule behind the calls is not given here.
# How the values were obtained:
# [1] = Induction of ROS generation in aqueous solution assessed as singlet oxygen generation (1O2) at 10 ug/ml pretreated with compound followed by light irradiation for 28 mins by fluorescence based analysis; assay type: functional; conditions: dose 10.0 µg/ml
# [2] = Induction of ROS generation in aqueous solution assessed as hydroxyl radical generation (.OH) at 10 ug/ml pretreated with compound followed by light irradiation for 28 mins by fluorescence based analysis; assay type: functional; conditions: dose 10.0 µg/ml
# Staphylococcus aureus [3] = test: Photodynamic antibacterial activity against Staphylococcus aureus infected in mouse assessed as reduction in neutrophils content in wounds at 50 ug/ml and measured on day 3 by Hematoxylin-Eosin staining based analysis; assay type: functional, organism-based; conditions: dose 50.0 µg/ml, time 3.0 day
# Staphylococcus aureus [4] = test: Photodynamic antibacterial activity against Staphylococcus aureus ATCC 25923 assessed as log reduction in colony forming units at 50 ug/ml preincubated for 5 mins in PBS followed by light irradiation for 20 mins and later cultured on LB agar plate for 18 hrs by plate-count method; assay type: functional; conditions: dose 50 µg/ml; time 1105 min; 18.42 h
# [5] = Stability of the compound in the solution assessed as fluorescence intensity measured after 28 mins of light exposure by fluorescence based analysis; assay type: physicochemical; conditions: read-out: Stability
# Staphylococcus aureus [6] = test: Photodynamic antibacterial activity against Staphylococcus aureus infected in mouse assessed as reduction in bacterial count in wounds at 50 ug/ml pretreated with compound followed by LED light irradiation for 30 mins and on day 5 the infected tissue harvested and cultured on LB agar plate and measured after 24 hrs by plate count method; assay type: functional, organism-based; conditions: dose 50.0 µg/ml, time 6.0 day
# Staphylococcus aureus [7] = test: Photodynamic antibacterial activity against Staphylococcus aureus infected in mouse assessed as reduction in pyosis in wounds at 50 ug/ml pretreated with compound followed by LED light irradiation for 30 mins and measured on day 1; assay type: functional, organism-based; conditions: dose 50.0 µg/ml, time 1.0 day
# Staphylococcus aureus [8] = test: Antibacterial activity against Staphylococcus aureus infected in mouse assessed as reduction in pyosis in wounds at 50 ug/ml measured on day 1; assay type: functional, organism-based; conditions: dose 50.0 µg/ml, time 1.0 day
# Staphylococcus aureus [9] = test: Photodynamic antibacterial activity against Staphylococcus aureus ATCC 700699 assessed as reduction in colony forming units at 50 to 100 ug/ml preincubated for 5 mins in PBS followed by light irradiation for 20 mins and later cultured on LB agar plate for 18 hrs by plate-count method; assay type: functional, organism-based; conditions: dose 50-100 µg/ml, time 1105.0 min
# Staphylococcus aureus [10] = test: Photodynamic antibacterial activity against Staphylococcus aureus ATCC 29213 assessed as reduction in colony forming units at 50 ug/ml preincubated for 5 mins in PBS followed by light irradiation for 20 mins and later cultured on LB agar plate for 18 hrs by plate-count method; assay type: functional, organism-based; conditions: dose 50.0 µg/ml, time 1105.0 min
# DNA [11] = test: Binding affinity to Staphylococcus aureus DNA assessed as change in absorbance spectrum by absorbance based analysis; assay type: nucleic-acid assay
# Staphylococcus aureus [12] = test: Photodynamic antibacterial activity against Staphylococcus aureus ATCC 25923 assessed as reduction in colony forming units at 50 ug/ml preincubated for 5 mins in PBS followed by light irradiation for 5 to 20 mins and later cultured on LB agar plate for 18 hrs by plate-count method; assay type: functional, organism-based; conditions: dose 50.0 µg/ml, time 1090-1105 min
# Cell membrane [13] = test: Disruption of inner cell membrane in Staphylococcus aureus assessed as increase in cell permeability by measuring increase in PI fluorescence intensity at 12.5 to 50 ug/ml measured after light irradiation by PI based fluorescence based analysis; assay type: subcellular; conditions: dose 12.5-50 µg/ml
# Staphylococcus aureus [14] = test: Photodynamic bactericidal activity against Staphylococcus aureus assessed as appearance of broken and shrunk bacterial cells at 50 ug/ml pretreated for 5 mins followed by light irradiation for 20 mins SEM analysis; assay type: functional, organism-based; conditions: dose 50.0 µg/ml, time 25.0 min
# DNA [15] = test: Binding affinity to Staphylococcus aureus DNA assessed as induction of genomic DNA degradation measured after 20 mins of light irradiation by absorbance based analysis; assay type: nucleic-acid assay; conditions: dose 12.5-100 µg/ml
# Staphylococcus aureus [16] = test: Antibacterial activity against Staphylococcus aureus assessed as inhibition of bacterial growth by CLSI based broth microdilution method; assay type: functional
# Staphylococcus aureus [17] = test: Photodynamic antibacterial activity against Staphylococcus aureus ATCC 25923 assessed as reduction in bacterial cell viability by measuring increase in PI-stained cells at 10 ug/ml preincubated for 5 mins in PBS followed by light irradiation for 20 mins by PI co-staining based fluorescence analysis; assay type: functional, organism-based; conditions: dose 10.0 µg/ml, time 25.0 min
# Staphylococcus aureus [18] = test: Photodynamic antibacterial activity against Staphylococcus aureus ATCC 25923 assessed as reduction in colony forming units at 50 to 100 ug/ml preincubated for 5 mins in PBS followed by light irradiation for 20 mins and later cultured on LB agar plate for 18 hrs by plate-count method; assay type: functional, organism-based; conditions: dose 50-100 µg/ml, time 1105.0 min
# [19] = Drug uptake in Staphylococcus aureus assessed as increase in bacterial imaging at 10 ug/ml by laser scanning confocal microscopic analysis; assay type: ADME; conditions: dose 10 µg/ml
# [20] = Drug uptake in Escherichia coli assessed as increase in bacterial imaging at 10 ug/ml by laser scanning confocal microscopic analysis; assay type: ADME; conditions: dose 10 µg/ml
# Staphylococcus aureus [21] = test: Photodynamic antibacterial activity against Staphylococcus aureus ATCC 43300 assessed as reduction in colony forming units at 50 to 100 ug/ml preincubated for 5 mins in PBS followed by light irradiation for 20 mins and later cultured on LB agar plate for 18 hrs by plate-count method; assay type: functional, organism-based; conditions: dose 50-100 µg/ml, time 1105.0 min
# Staphylococcus aureus [22] = test: Photodynamic antibacterial activity against Staphylococcus aureus ATCC 29213 assessed as reduction in colony forming units at 50 to 100 ug/ml preincubated for 5 mins in PBS followed by light irradiation for 20 mins and later cultured on LB agar plate for 18 hrs by plate-count method; assay type: functional, organism-based; conditions: dose 50-100 µg/ml, time 1105.0 min
# Cell membrane [23] = test: Binding affinity to cell membrane in Staphylococcus aureus assessed as membrane potential collapse at 25 to 50 ug/ml by measuring increase in fluorescence intensity measured after light irradiation by Rhodamine123 staining based fluorescence analysis; assay type: subcellular; conditions: dose 25-50 µg/ml
# [24] = Drug uptake in Staphylococcus aureus ATCC 25923 measured after washing by absorbance based analysis; assay type: ADME
# Staphylococcus aureus [25] = test: Photodynamic antibacterial activity against Staphylococcus aureus infected in mouse assessed as reduction in pyosis in wounds at 50 ug/ml pretreated with compound followed by LED light irradiation for 30 mins and measured on day 3; assay type: functional, organism-based; conditions: dose 50.0 µg/ml, time 3.0 day
# Cell membrane [26] = test: Disruption of cell membrane in Staphylococcus aureus assessed as increase in membrane depolarization by measuring increase in fluorescence intensity measured after light irradiation by DiBAC4(3) based fluorescence analysis; assay type: subcellular; conditions: dose 25-100 µg/ml
# Staphylococcus aureus [27] = test: Photodynamic antibacterial activity against Staphylococcus aureus ATCC 700699 assessed as reduction in colony forming units at 50 ug/ml preincubated for 5 mins in PBS followed by light irradiation for 20 mins and later cultured on LB agar plate for 18 hrs by plate-count method; assay type: functional, organism-based; conditions: dose 50.0 µg/ml, time 1105.0 min
# Staphylococcus aureus [28] = test: Photodynamic antibacterial activity against Staphylococcus aureus ATCC 43300 assessed as reduction in colony forming units at 50 ug/ml preincubated for 5 mins in PBS followed by light irradiation for 20 mins and later cultured on LB agar plate for 18 hrs by plate-count method; assay type: functional, organism-based; conditions: dose 50.0 µg/ml, time 1105.0 min
# [29] = Aqueous solubility of the compound relative to berberine; assay type: physicochemical; conditions: buffer
# [30] = Drug uptake in Staphylococcus aureus ATCC 43300 measured after washing by absorbance based analysis; assay type: ADME
# Cell membrane [31] = test: Binding affinity to cell membrane in Staphylococcus aureus assessed as membrane potential collapse at 25 to 100 ug/ml by measuring increase in fluorescence intensity measured under dark conditions by Rhodamine123 staining based fluorescence analysis; assay type: subcellular; conditions: dose 25-100 µg/ml
# Escherichia coli [32] = test: Photodynamic antibacterial activity against Escherichia coli EPEC assessed as reduction in colony forming units at 50 ug/ml preincubated for 5 mins in PBS followed by light irradiation for 20 mins and later cultured on LB agar plate for 18 hrs by plate-count method; assay type: functional, organism-based; conditions: dose 50.0 µg/ml, time 1105.0 min
# Escherichia coli [33] = test: Photodynamic antibacterial activity against Escherichia coli EHEC assessed as reduction in colony forming units at 50 ug/ml preincubated for 5 mins in PBS followed by light irradiation for 20 mins and later cultured on LB agar plate for 18 hrs by plate-count method; assay type: functional, organism-based; conditions: dose 50.0 µg/ml, time 1105.0 min
# [34] = Drug uptake in Escherichia coli EHEC measured after washing by absorbance based analysis; assay type: ADME
# Staphylococcus aureus [35] = test: Photodynamic antibacterial activity against Staphylococcus aureus infected in mouse assessed as reduction in pyosis in wounds at 50 ug/ml pretreated with compound followed by LED light irradiation for 30 mins and measured on day 5; assay type: functional, organism-based; conditions: dose 50.0 µg/ml, time 5.0 day
# Staphylococcus aureus [36] = test: Antibacterial activity against Staphylococcus aureus ATCC 25923 assessed as reduction in colony forming units at 50 ug/ml preincubated for 5 to 20 mins in PBS followed by culturing on LB agar plate for 18 hrs by plate-count method; assay type: functional, organism-based; conditions: dose 50.0 µg/ml, time 1085-1100 min
# Escherichia coli [37] = test: Antibacterial activity against Escherichia coli assessed as inhibition of bacterial growth by CLSI based broth microdilution method; assay type: functional, organism-based
# Staphylococcus aureus [38] = test: Antibacterial activity against Staphylococcus aureus ATCC 25923 assessed as viable cells with tiny amount of PI emission at 10 ug/ml measured under dark conditions by PI co-staining based fluorescence analysis; assay type: functional, organism-based; conditions: dose 10.0 µg/ml
# Staphylococcus aureus [39] = test: Antibacterial activity against Staphylococcus aureus ATCC 29213 assessed as inhibition of bacterial growth by CLSI based broth microdilution method; assay type: functional, organism-based
smiles,measurement,setting,value
COc1ccc2c(c1)CC[n+]1cc3ccccc3cc1-2,Activity,[1],inactive
same,Activity,[2],inactive
COc1ccc2c(c1)CC[n+]1cc3cc4c(cc3cc1-2)OCO4,Activity,[1],Active
same,Activity,[2],Active
COc1ccc2cc3[n+](cc2c1OC)CCc1cc2c(cc1-3)OCO2.[Cl-] [BERBERINE CHLORIDE],Activity,Staphylococcus aureus [3],inactive
same,Activity,Staphylococcus aureus [4],2 log10CFU/ml
same,remaining at 28 min,[5],60%
same,Activity,Staphylococcus aureus [6],Active
same,Activity,Staphylococcus aureus [7],inactive
same,Activity,Staphylococcus aureus [8],inactive
COc1ccc2c(c1)CC[n+]1cc3c(OC)cccc3cc1-2.[Cl-],Activity,[1],Active
same,Activity,Staphylococcus aureus [9],Dose-dependent-effect
same,Activity,Staphylococcus aureus [10],Active; Higher Activity Compared To Bbr And Mb But Lower Activity Compared To Ce6
same,Activity,Staphylococcus aureus [4],~5 log10CFU/ml
same,Activity,DNA [11],Active
same,Activity,Staphylococcus aureus [12],Time-dependent-effect
same,Activity,Cell membrane [13],Dose-dependent-effect
same,Activity,Staphylococcus aureus [14],Active
same,Activity,DNA [15],Dose-dependent-effect
same,MIC,Staphylococcus aureus [16],50 µg/mL
same,remaining at 28 min,[5],~90%
same,Activity,Staphylococcus aureus [17],Active
same,Activity,Staphylococcus aureus [18],Dose-dependent-effect
same,Drug uptake,[19],Active
same,Drug uptake,[20],Active
same,Activity,Staphylococcus aureus [21],Dose-dependent-effect
same,Activity,Staphylococcus aureus [22],Dose-dependent-effect
same,Activity,Cell membrane [23],Active
same,Drug uptake,[24],Active
same,Activity,Staphylococcus aureus [25],Active; Pyosis Nearly Disappeared
same,Activity,Cell membrane [26],Dose-dependent-effect
same,Activity,Staphylococcus aureus [27],Active; Higher Activity Compared To Bbr And Mb But Lower Activity Compared To Ce6
same,Activity,Staphylococcus aureus [6],Active
same,Activity,Staphylococcus aureus [28],Active; Higher Activity Compared To Bbr And Mb But Lower Activity Compared To Ce6
same,fold change (FC),[29],~ 10
same,Drug uptake,[30],Not_active
same,Activity,Cell membrane [31],Active
same,Activity,Escherichia coli [32],Active
same,Activity,Escherichia coli [33],inactive
same,Drug uptake,[34],Not_active
same,Activity,[2],Active
same,Activity,Staphylococcus aureus [7],Active
same,Activity,Staphylococcus aureus [35],Active; Favourable Wound Healing Status Observed
same,Activity,Staphylococcus aureus [36],inactive
same,Activity,Escherichia coli [37],Active; Activity Against Escherichia Coli Is Lower Than Staphylococcus Aureus
same,Activity,Staphylococcus aureus [38],inactive
COc1cccc2cc3[n+](cc12)CCc1cc2c(cc1-3)OCO2.[Cl-],Activity,Staphylococcus aureus [4],4 log10CFU/ml
same,Activity,Staphylococcus aureus [39],Active
same,Activity,Staphylococcus aureus [36],inactive
COc1ccc2c(c1)CC[n+]1cc3cc(OC)ccc3cc1-2.[Cl-],Activity,[1],Active
same,Activity,Staphylococcus aureus [4],4.5 log10CFU/ml
same,Activity,Staphylococcus aureus [12],Time-dependent-effect
same,Activity,Staphylococcus aureus [16],Active
same,fold change (FC),[29],~ 10
same,Activity,Escherichia coli [33],inactive
same,Activity,[2],Active
same,Activity,Staphylococcus aureus [36],inactive
same,Activity,Escherichia coli [37],Active; Activity Against Escherichia Coli Is Lower Than Staphylococcus Aureus
CCCCN1C(=O)C(=C/C=C/C2C(=O)N(CCCC)C(=O)N(CCCC)C2=O)C(=O)N(CCCC)C1=O,remaining at 28 min,[5],40%
COc1ccc2c(c1)CC[n+]1cc3c4c(ccc3cc1-2)OCO4,Activity,[1],inactive
same,Activity,[2],inactive
